Non-standard residues stand in square brackets, D forms with d. Residues, ends and D or L forms follow the SMILES beside them. dTrp(5-F) = N[C@H](Cc1c[nH]c2ccc(F)cc12)C(=O)O; Orn = NCCC[C@H](N)C(=O)O; Abu = CC[C@H](N)C(=O)O
Key:
[1] = test system: Rat pituitaries (growth hormone release); experiment: In vitro inhibition of growth hormone release from cultured rat pituitary cells; type: cell-based; conditions: multiples or fractions of the effect of somatostatin (= 1), fiducial limits in parentheses, 4 hours incubation, radioimmunoassay
Procedure: The instant cyclic hexapeptide analogs of somatostatin are tested and compared with the effects of somatostatin in an in vitro test for the inhibition of growth hormone. The test is described as follows:
"Rat pituitaries were isolated according to the procedures of Vale and Grant "In vitro Pituitary Hormone Secretion Assay for Hypophysiotropic Substances" in Methods in Enzymology. Vol. XXXVII, eds. O'Malley, B. W. and Hardman, J. G. (Academic Press, Inc., New York) pp. 5-93 (1975).
After 4 days in culture, the cells were washed and incubated for 4 hours in Dulbecco-modified Eagle's medium in the presence or absence of graded doses of each analog or somatostatin. The medium was then collected for subsequent growth hormone determination by a double antibody radioimmunoassay for rat growth hormone."
The test results for some of the compounds of this invention are recorded below with the results for somatostatin listed first and given the arbitrary value of 1. The results for the instant compounds are given as multiples or fractions of the effect of somatostatin. The numbers in parentheses are the fiducial limits for the number preceding. The first of the instant compounds listed is the compound prepared in Example 1-5. The compound is written slightly different, however, to conform to the order of the amino acids found in somatostatin.

[2] = test system: pentagastrin evoked gastric secretion in the chronic fistula dog; experiment: Inhibition of pentagastrin evoked gastric secretion in the chronic fistula dog; type: in vivo; conditions: dose 0.8 μg/ml./min., infusion 0-60 min, pentagastrin 2.5 μg./kg./hour i.v., relative to placebo trial; for Gastric Secretion % Inhibition, Acid Concentration, 0-30 / Gastric Secretion % Inhibition, Vol., 0-30: 0-30 min; for Gastric Secretion % Inhibition, Acid Concentration, 30-60 / Gastric Secretion % Inhibition, Vol., 30-60: 30-60 min; for Gastric Secretion % Inhibition, Acid Concentration, 60-90 / Gastric Secretion % Inhibition, Vol., 60-90: 60-90 min; for Gastric Secretion % Inhibition, Acid Concentration, 90-120 / Gastric Secretion % Inhibition, Vol., 90-120: 90-120 min; for Gastric Secretion % Inhibition, Vol., 0-30 / Gastric Secretion % Inhibition, Vol., 30-60 / Gastric Secretion % Inhibition, Vol., 60-90 / Gastric Secretion % Inhibition, Vol., 90-120: volume
Procedure: The effects of the instant cyclichexapeptide analogs of somatostatin are determined by the following procedure.
Compounds were tested for their ability to inhibit pentagastrin evoked gastric secretion in the chronic fistula dog. Female beagle dogs with a chronic gastric fistula were given pentagastrin (2.5 μg./kg./hour, i.v. from -60 to 120 min.) and gastric outputs were collected via the fistula cannula. Samples were analyzed at 30 minute intervals for volume (ml.) and titratable acid (mEq/L) (Titration to pH 7 with 0.01 N NaOH); total acid output (mEq) was calculated as the production of output volume and acid concentration. Test compounds were infused at a constant rate from 0 to 60 minutes. Data have been expressed as percent change of total acid output relative to a placebo trial in the same animals.

**Q.** How did the “Growth Hormone Release Inhibition In Vitro” value [1] turn out when `C[C@@H]1NC(=O)[C@@H]2CCCN2C(=O)[C@H](Cc2ccccc2)NC(=O)[C@H]([C@@H](C)O)NC(=O)[C@H](CCCCN)NC(=O)[C@@H](Cc2c[nH]c3ccccc23)NC1=O` [Cyclo(Pro-Ala-d-Trp-Lys-Thr-Phe)] (cyclo(A[dW]KTFP)) was run?
**A.** 0.19 (0.1-0.38)

**Q.** What does the source list for `C[C@@H](O)[C@@H]1NC(=O)[C@H](CCCCN)NC(=O)[C@@H](Cc2c[nH]c3ccccc23)NC(=O)[C@H](Cc2ccccc2)NC(=O)[C@@H]2CCCN2C(=O)[C@H](Cc2ccccc2)NC1=O` [Cyclo(Pro-Phe-D-Trp-Lys-Thr-Phe)] (cyclo(PF[dW]KTF))?
**A.** Growth Hormone Release Inhibition In Vitro [1]: 1.71 (1.31-2.32); Gastric Secretion % Inhibition, Acid Concentration, 0-30 [2]: 18%; Gastric Secretion % Inhibition, Acid Concentration, 30-60 [2]: 47%; Gastric Secretion % Inhibition, Acid Concentration, 60-90 [2]: 54%; Gastric Secretion % Inhibition, Acid Concentration, 90-120 [2]: 68%; Gastric Secretion % Inhibition, Vol., 0-30 [2]: 88%; Gastric Secretion % Inhibition, Vol., 30-60 [2]: 98%; Gastric Secretion % Inhibition, Vol., 60-90 [2]: 95%; Gastric Secretion % Inhibition, Vol., 90-120 [2]: 86%

**Q.** With `C[C@@H](O)[C@@H]1NC(=O)[C@H](CCCCN)NC(=O)[C@H](Cc2c[nH]c3ccccc23)NC(=O)[C@H](Cc2ccccc2)NC(=O)[C@@H]2CCCN2C(=O)[C@H](Cc2ccccc2)NC1=O` [Cyclo(Pro-Phe-L-Trp-Lys-Thr-Phe)] (cyclo(FPFWKT)) as the compound, how does the “Growth Hormone Release Inhibition In Vitro” value [1] read?
**A.** 1.59 (1.33-1.92)

**Q.** For `CC[C@@H]1NC(=O)[C@H](CCCCN)NC(=O)[C@@H](Cc2c[nH]c3ccccc23)NC(=O)[C@H](Cc2ccccc2)NC(=O)[C@@H]2CCCN2C(=O)[C@H](Cc2ccccc2)NC1=O` [Cyclo(Pro-Phe-D-Trp-Lys-α-ABU-Phe)] (cyclo([Abu]FPF[dW]K)), which “Growth Hormone Release Inhibition In Vitro” value [1] is on record?
**A.** 0.82 (0.57-1.18)

**Q.** For `C[C@@H](O)[C@@H]1NC(=O)[C@H](CCCCN)NC(=O)[C@@H](Cc2c[nH]c3ccc(F)cc23)NC(=O)[C@H](Cc2ccccc2)NC(=O)[C@@H]2CCCN2C(=O)[C@H](Cc2ccccc2)NC1=O` [Cyclo(Pro-Phe-D-5F-Trp-Lys-Thr-Phe)] (cyclo(FPF[dTrp(5-F)]KT)), which “Growth Hormone Release Inhibition In Vitro” value [1] is on record?
**A.** 2.4 (2.1-2.8)

**Q.** `C[C@@H](O)[C@@H]1NC(=O)[C@H](CCCN)NC(=O)[C@@H](Cc2c[nH]c3ccccc23)NC(=O)[C@H](Cc2ccccc2)NC(=O)[C@@H]2CCCN2C(=O)[C@H](Cc2ccccc2)NC1=O` [Cyclo(Pro-Phe-D-Trp-Orn-Thr-Phe)] (cyclo(FPF[dW][Orn]T)) was tested. Which “Growth Hormone Release Inhibition In Vitro” value [1] did it give?
**A.** 0.16(0.15-0.17)

**Q.** With `CC(C)C[C@@H]1NC(=O)[C@@H]2CCCN2C(=O)[C@H](Cc2ccccc2)NC(=O)[C@H]([C@@H](C)O)NC(=O)[C@H](CCCCN)NC(=O)[C@@H](Cc2c[nH]c3ccccc23)NC1=O` [Cyclo(Pro-Leu-D-Trp-Lys-Thr-Phe)] (cyclo(FPL[dW]KT)) as the compound, how does the “Growth Hormone Release Inhibition In Vitro” value [1] read?
**A.** 0.29 (0.13-0.57)

**Q.** For `NCCCC[C@@H]1NC(=O)[C@@H](Cc2c[nH]c3ccccc23)NC(=O)[C@H](Cc2ccccc2)NC(=O)[C@@H]2CCCN2C(=O)[C@H](Cc2ccccc2)NC(=O)[C@H](CO)NC1=O` [Cyclo(Pro-Phe-D-Trp-Lys-ser-Phe)] (cyclo(FPF[dW]KS)), which “Growth Hormone Release Inhibition In Vitro” value [1] is on record?
**A.** 1.4 (1.1-1.7)

**Q.** Which results are given for `C[C@@H](O)[C@@H]1NC(=O)[C@H](CCCCN)NC(=O)[C@@H](Cc2c[nH]c3ccccc23)NC(=O)[C@H](Cc2ccc(O)cc2)NC(=O)[C@@H]2CCCN2C(=O)[C@H](Cc2ccccc2)NC1=O` [Cyclo(Pro-Tyr-D-Trp-Lys-Thr-Phe)] (cyclo(FPY[dW]KT))?
**A.** Growth Hormone Release Inhibition In Vitro [1]: 14.3 (8.3-33.0); Gastric Secretion % Inhibition, Acid Concentration, 0-30 [2]: 30%; Gastric Secretion % Inhibition, Acid Concentration, 30-60 [2]: 49%; Gastric Secretion % Inhibition, Acid Concentration, 60-90 [2]: 52%; Gastric Secretion % Inhibition, Acid Concentration, 90-120 [2]: 27%; Gastric Secretion % Inhibition, Vol., 0-30 [2]: 67%; Gastric Secretion % Inhibition, Vol., 30-60 [2]: 87%; Gastric Secretion % Inhibition, Vol., 60-90 [2]: 87%; Gastric Secretion % Inhibition, Vol., 90-120 [2]: 64%

**Q.** For `CC(C)C[C@@H]1NC(=O)[C@H]([C@@H](C)O)NC(=O)[C@H](CCCCN)NC(=O)[C@@H](Cc2c[nH]c3ccccc23)NC(=O)[C@H](Cc2ccccc2)NC(=O)[C@@H]2CCCN2C1=O` [Cyclo(Pro-Phe-D-Trp-Lys-Thr-Leu)] (cyclo(F[dW]KTLP)), which “Growth Hormone Release Inhibition In Vitro” value [1] is on record?
**A.** 0.16 (0.07-0.33)
